In US8415469B2, “Compounds and methods for kinase modulation, and indications therefor” (Plexxikon Inc., priority 2005, dated 2013):

Assays:
Assay type in all cases: biochemical
B-Raf = target: T1, B-Raf (Homo sapiens, UniProt P15056); test: AlphaScreen kinase assay, B-Raf; settings: read-out: IC50, activity toward kinase B-Raf
T1 construct: purchased Upstate Biotechnology
Text: AlphaScreen assay was used to screen additional kinases. The assay is similarly dependent on the phosphorylation of a peptide substrate. In this assay, an antibody that recognizes phosphorylated substrate is bound to an acceptor bead. The peptide substrate is attached to biotin, which binds to a donor head that contains streptavidin. Thus phosphorylated substrate is bound by antibody and streptavidin, bringing the donor and acceptor heads into close proximity when kinase is not inhibited. The donor produces singlet oxygen which results in emission from the acceptor when they are in close proximity. Conversely, when kinase is inhibited, the donor and acceptor beads are not associated and the emission from the acceptor is reduced.
AlphaScreen assays were done using compounds dissolved in DMSO to a concentration of 20 mM. The compounds were diluted accordingly to the desired final concentrations in each sample well, using 1:3 serial dilution for a total of 8 concentration points. Plates were prepared such that each kinase reaction is 20 μl in 1× kinase buffer, 5% DMSO and 10 μM ATP. After incubation of the kinase reaction for 1 hour at room temperature, 5 μl of donor beads in stop buffer (50 mM EDTA in 1× kinase buffer) was added, the sample was mixed and incubated for 20 minutes at room temperature before adding 5 μl of acceptor beads in stop buffer. The samples were incubated for 60 minutes at room temperature and the signal per well was read on AlphaQuest reader.

Fms = target: T2, Fms (Homo sapiens, UniProt P07333); test: AlphaScreen kinase assay, Fms; settings: read-out: IC50, activity toward kinase Fms
T2 construct: purchased Upstate Biotechnology
T2 sequence (P07333 20-972): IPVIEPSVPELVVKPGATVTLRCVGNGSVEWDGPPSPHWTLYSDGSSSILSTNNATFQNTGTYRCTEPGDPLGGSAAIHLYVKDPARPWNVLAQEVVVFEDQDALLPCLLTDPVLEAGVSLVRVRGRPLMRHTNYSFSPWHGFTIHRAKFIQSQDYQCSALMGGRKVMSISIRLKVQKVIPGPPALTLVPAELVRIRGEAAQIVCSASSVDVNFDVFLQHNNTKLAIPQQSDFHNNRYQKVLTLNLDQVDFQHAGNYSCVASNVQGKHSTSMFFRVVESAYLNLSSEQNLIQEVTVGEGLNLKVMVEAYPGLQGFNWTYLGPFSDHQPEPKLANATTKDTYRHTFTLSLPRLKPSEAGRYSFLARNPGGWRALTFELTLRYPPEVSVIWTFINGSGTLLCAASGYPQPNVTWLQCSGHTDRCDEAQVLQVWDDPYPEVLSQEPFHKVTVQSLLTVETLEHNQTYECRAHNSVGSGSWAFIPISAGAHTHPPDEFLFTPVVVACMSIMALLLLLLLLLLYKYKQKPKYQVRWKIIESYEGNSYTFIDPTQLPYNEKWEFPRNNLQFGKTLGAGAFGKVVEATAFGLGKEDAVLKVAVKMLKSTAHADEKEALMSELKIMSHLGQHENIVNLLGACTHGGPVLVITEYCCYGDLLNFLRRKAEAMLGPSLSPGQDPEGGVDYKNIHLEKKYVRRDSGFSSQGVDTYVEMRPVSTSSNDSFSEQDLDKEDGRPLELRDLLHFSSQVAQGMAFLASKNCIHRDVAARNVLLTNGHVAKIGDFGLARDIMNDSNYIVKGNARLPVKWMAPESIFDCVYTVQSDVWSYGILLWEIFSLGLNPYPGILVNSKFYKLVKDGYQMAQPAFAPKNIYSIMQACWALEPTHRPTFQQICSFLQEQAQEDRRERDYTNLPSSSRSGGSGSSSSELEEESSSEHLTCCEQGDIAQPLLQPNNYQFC

Src = target: T3, Src (Homo sapiens, UniProt P12931); test: AlphaScreen kinase assay, Src; settings: read-out: IC50, activity toward kinase Src
T3 construct: P1144. pET-N6 BI-PTP SRC V86-L536-X; made in house
T3 sequence (P12931 with tags, fused parts or gaps): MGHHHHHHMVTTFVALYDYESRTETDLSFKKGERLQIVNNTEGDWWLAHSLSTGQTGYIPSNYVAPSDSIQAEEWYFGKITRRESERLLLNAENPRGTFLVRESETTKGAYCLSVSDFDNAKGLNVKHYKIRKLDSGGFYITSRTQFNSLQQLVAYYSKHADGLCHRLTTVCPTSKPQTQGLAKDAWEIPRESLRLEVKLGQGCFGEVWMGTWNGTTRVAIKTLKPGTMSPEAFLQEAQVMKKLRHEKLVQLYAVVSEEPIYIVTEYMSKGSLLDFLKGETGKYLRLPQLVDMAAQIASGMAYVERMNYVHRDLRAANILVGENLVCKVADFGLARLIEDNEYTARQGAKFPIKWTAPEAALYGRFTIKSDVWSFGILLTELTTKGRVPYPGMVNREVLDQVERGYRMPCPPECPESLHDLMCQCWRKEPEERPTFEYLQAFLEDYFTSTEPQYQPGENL

Fak = target: T4, Fak (Homo sapiens, UniProt Q05397); test: AlphaScreen kinase assay, Fak; settings: read-out: IC50, activity toward kinase Fak
T4 construct: P1358.pFastBacHtb FAK S411-Q686-X; His6 with pFastBacHTb leader (TEV site) (N); made in house; host or cells: Sf9 (baculovirus)
T4 sequence (Q05397 411-686): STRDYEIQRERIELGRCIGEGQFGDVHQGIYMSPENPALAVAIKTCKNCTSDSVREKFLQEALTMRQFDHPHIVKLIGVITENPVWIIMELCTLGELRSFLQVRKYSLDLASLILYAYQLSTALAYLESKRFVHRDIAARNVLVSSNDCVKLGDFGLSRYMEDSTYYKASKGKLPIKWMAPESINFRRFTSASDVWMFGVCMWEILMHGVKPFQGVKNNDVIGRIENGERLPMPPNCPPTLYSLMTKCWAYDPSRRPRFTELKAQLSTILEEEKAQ

Jnk1 = target: T5, Jnk1 (Homo sapiens, UniProt P45983); test: AlphaScreen kinase assay, Jnk1; settings: read-out: IC50, activity toward kinase Jnk1
T5 construct: purchased Upstate Biotechnology
T5 sequence (P45983 whole entry): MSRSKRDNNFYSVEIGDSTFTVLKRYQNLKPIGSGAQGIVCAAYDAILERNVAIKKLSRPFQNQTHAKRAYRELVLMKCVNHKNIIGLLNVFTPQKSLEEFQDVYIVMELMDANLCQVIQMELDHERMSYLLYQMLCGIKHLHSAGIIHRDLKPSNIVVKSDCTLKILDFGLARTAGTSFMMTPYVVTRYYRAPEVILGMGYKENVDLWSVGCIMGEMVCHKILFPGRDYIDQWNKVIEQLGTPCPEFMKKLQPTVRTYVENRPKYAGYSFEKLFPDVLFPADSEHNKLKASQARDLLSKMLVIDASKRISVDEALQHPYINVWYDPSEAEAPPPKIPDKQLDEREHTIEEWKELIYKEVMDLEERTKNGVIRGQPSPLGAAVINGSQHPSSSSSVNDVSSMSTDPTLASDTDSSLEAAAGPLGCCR

B-Raf V600E = target: T6, B-Raf V600E (Homo sapiens, UniProt P15056, V600E); test: AlphaScreen kinase assay, B-Raf V600E; settings: read-out: IC50, activity toward kinase B-Raf V600E
T6 construct: P4254. pFastBacBD-CDC37 BRAF D437-K722-X, V600E; His6 with pFastBac HT leader (TEV site) (N); made in house; host or cells: Sf9 (baculovirus; chaperone CDC37 co-expressed)
T6 sequence (P15056 with tags, fused parts or gaps V600E): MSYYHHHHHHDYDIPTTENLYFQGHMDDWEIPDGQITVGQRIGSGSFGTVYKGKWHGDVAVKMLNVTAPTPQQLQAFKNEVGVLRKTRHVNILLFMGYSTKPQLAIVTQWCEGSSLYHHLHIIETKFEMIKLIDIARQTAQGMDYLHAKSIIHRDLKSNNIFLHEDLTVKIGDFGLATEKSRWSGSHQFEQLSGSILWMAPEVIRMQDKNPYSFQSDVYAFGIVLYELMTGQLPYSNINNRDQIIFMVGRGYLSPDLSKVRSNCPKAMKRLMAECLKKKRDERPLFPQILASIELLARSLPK

Kit = target: T7, Kit (Homo sapiens, UniProt P10721); test: AlphaScreen kinase assay, Kit; settings: read-out: IC50, activity toward kinase Kit
T7 construct: P1332.N6 BI PTP KIT M552-K948-X COD; His6 (N); made in house; host or cells: E. coli (PTP1B co-expressed)
T7 sequence (P10721 with tags, fused parts or gaps): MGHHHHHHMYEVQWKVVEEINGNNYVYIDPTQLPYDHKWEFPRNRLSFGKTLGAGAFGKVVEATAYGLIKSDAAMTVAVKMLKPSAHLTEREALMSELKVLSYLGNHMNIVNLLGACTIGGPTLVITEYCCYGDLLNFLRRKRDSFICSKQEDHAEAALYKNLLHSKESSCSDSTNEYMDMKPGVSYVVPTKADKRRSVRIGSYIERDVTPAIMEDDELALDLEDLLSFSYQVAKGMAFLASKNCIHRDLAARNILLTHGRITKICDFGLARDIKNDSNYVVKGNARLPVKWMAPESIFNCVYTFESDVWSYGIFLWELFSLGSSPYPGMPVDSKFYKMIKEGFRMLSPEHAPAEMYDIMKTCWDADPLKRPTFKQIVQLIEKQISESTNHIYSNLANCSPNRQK

FGFR1 = target: T8, FGFR1 (Homo sapiens, UniProt P11362, C488A/C584S); test: AlphaScreen kinase assay, FGFR1; settings: read-out: IC50, activity toward kinase FGFR
T8 construct: P1351.pET N6 BI-PTP FGFR A458-E765-X C488A, C584S; made in house; host or cells: E. coli (PTP1B co-expressed)
T8 sequence (P11362 458-765 C488A/C584S): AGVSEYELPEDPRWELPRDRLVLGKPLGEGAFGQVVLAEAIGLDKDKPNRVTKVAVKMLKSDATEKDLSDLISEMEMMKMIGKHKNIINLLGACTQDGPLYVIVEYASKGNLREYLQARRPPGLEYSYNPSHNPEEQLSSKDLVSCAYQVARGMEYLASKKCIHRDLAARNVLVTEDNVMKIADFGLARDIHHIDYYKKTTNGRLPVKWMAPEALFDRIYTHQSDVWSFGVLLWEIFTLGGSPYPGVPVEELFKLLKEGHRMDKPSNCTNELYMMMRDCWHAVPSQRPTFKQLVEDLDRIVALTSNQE

Pyk2 = target: T9, Pyk2 (Homo sapiens, UniProt Q14289); test: AlphaScreen kinase assay, Pyk2; settings: read-out: IC50, activity toward kinase Pyk2
T9 construct: purchased Upstate Biotechnology
T9 sequence (Q14289 whole entry): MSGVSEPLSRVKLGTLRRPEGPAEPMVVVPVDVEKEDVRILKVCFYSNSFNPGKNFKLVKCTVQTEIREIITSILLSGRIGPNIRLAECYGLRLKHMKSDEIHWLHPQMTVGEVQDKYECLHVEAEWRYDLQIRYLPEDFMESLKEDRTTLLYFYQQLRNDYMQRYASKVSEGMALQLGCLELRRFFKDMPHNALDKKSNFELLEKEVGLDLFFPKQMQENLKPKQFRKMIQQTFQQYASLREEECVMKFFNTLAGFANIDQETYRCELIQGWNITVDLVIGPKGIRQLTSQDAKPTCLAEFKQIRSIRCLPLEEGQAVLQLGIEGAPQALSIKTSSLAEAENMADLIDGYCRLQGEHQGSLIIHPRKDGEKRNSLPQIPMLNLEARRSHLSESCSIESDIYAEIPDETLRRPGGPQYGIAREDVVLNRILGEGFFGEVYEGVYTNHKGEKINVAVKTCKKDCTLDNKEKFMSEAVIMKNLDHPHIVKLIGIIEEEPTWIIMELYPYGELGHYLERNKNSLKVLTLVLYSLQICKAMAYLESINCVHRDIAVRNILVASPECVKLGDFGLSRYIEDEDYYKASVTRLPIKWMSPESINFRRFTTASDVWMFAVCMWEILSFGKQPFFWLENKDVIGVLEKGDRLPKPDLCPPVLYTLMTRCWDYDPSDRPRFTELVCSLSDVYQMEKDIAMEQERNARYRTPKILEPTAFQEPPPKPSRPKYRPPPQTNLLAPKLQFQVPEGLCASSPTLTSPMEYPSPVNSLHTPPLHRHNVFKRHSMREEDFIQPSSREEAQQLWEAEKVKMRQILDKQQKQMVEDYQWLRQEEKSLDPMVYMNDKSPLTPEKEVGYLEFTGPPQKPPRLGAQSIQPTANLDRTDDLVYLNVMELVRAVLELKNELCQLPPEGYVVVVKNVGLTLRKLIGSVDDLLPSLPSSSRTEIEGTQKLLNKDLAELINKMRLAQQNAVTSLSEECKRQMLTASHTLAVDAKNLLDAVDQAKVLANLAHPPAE

c-Raf-1 = target: T10, c-Raf-1 (Homo sapiens, UniProt P04049); test: AlphaScreen kinase assay, c-Raf-1; settings: read-out: IC50, activity toward kinase c-Raf-1
T10 construct: purchased Upstate Biotechnology
T10 sequence (P04049 whole entry): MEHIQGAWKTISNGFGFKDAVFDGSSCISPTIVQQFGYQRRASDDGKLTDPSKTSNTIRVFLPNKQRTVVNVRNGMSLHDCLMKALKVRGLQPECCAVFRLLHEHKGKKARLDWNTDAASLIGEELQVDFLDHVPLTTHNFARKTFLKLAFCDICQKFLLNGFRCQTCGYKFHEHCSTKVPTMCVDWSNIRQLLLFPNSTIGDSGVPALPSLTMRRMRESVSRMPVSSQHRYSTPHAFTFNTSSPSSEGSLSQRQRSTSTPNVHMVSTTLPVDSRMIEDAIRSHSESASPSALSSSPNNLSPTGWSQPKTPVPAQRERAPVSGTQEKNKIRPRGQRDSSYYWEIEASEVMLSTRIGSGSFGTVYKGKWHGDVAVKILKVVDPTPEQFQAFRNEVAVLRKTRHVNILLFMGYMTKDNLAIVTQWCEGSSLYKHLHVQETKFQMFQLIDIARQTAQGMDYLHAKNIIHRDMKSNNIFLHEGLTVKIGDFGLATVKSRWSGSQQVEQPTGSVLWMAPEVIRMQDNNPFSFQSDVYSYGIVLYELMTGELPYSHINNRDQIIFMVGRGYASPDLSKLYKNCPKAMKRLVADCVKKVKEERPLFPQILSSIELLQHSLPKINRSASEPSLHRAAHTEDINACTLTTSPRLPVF

Flt1 = target: T11, Flt1 (Homo sapiens, UniProt P17948); test: AlphaScreen kinase assay, Flt1; settings: read-out: IC50, activity toward kinase Flt1
T11 construct: P1826.pETN6 BI-PTP FLT1 M799-D1165-X WT; His6 (N); made in house; host or cells: E. coli (PTP1B co-expressed)
T11 sequence (P17948 with tags, fused parts or gaps): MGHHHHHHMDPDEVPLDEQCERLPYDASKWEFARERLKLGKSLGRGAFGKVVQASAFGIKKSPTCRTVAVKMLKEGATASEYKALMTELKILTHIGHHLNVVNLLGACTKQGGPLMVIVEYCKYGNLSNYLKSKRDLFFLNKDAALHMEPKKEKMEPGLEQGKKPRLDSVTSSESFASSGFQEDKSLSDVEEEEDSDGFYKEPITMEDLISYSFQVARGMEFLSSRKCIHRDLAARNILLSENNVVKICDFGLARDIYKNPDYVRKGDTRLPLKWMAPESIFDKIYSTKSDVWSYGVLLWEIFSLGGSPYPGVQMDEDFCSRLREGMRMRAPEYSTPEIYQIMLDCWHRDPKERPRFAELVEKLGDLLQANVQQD

Ret = target: T12, Ret (Homo sapiens, UniProt P07949); test: AlphaScreen kinase assay, Ret; settings: read-out: IC50, activity toward kinase Ret
T12 construct: P1378.pET-SF BI-PTP RET H661-R1012 HIS; made in house
T12 sequence (P07949 with tags, fused parts or gaps): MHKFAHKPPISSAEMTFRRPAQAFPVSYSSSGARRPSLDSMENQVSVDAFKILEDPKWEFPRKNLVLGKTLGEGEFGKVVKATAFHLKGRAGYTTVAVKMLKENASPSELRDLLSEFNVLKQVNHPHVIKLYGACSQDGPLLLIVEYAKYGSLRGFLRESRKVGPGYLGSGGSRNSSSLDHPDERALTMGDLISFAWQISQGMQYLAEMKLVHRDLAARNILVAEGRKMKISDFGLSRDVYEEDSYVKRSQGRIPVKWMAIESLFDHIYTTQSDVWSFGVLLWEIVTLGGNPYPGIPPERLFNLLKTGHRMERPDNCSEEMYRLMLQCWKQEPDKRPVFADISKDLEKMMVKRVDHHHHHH

Jnk3 = target: T13, Jnk3 (Homo sapiens, UniProt P53779); test: AlphaScreen kinase assay, Jnk3; settings: read-out: IC50, activity toward kinase Jnk3
T13 construct: purchased Upstate Biotechnology

Measured: IC50

CCCC(=O)Nc1ccc(F)c(Cc2c[nH]c3ncc(-c4cccc(C(N)=O)c4)cc23)c1F [Compound P-1281]
not listed: c-Raf-1 | Flt1 | Ret | Jnk3
≤ 10 µM: all other assays above

CCCS(=O)(=O)Nc1ccc(F)c(C(=O)c2c[nH]c3ncc(-c4cccc(OC)c4)cc23)c1F [Compound P-0874, Propane-1-sulfonic acid {2,4-difluoro-3-[5-(3-methoxy-phenyl)-1H-pyrrolo[2,3-b]pyridine-3-carbonyl]-phenyl}-amide]
not listed: Fak | Jnk1 | Flt1 | Ret | Jnk3
≤ 10 µM: all other assays above

CCCS(=O)(=O)Nc1ccc(F)c(Cc2c[nH]c3ncc(OC)cc23)c1F [Compound P-1316]
not listed: B-Raf | Jnk1 | Flt1 | Ret | Jnk3
≤ 10 µM: all other assays above

CC(C)S(=O)(=O)Nc1ccc(F)c(Cc2c[nH]c3ncc(Br)cc23)c1F [Compound P-0867, Propane-2-sulfonic acid [3-(5-bromo-1H-pyrrolo[2,3-b]pyridin-3-ylmethyl)-2,4-difluoro-phenyl]-amide]
not listed: Src | Jnk1 | Flt1 | Ret | Jnk3
≤ 10 µM: all other assays above

CCCC(=O)Nc1ccc(F)c(Cc2c[nH]c3ncc(Br)cc23)c1F [Compound P-1282]
≤ 10 µM: B-Raf | Fms | Fak | B-Raf V600E | FGFR1 | Pyk2

CCCC(=O)Nc1ccc(F)c(C(=O)c2c[nH]c3ncc(-c4cccc(C(N)=O)c4)cc23)c1F [Compound P-1365]
not listed: Src | Ret | Jnk3
≤ 10 µM: all other assays above

CCCS(=O)(=O)Nc1ccc(F)c(C(=O)c2c[nH]c3ncc(Nc4ccccc4)cc23)c1F [Compound P-0848, propane-1-sulfonic acid [2,4-difluoro-3-(5-phenylamino-1H-pyrrolo[2,3-b]pyridine-3-carbonyl)-phenyl]-amide]
not listed: Fak | Flt1 | Ret | Jnk3
≤ 10 µM: all other assays above

CN(C)S(=O)(=O)Nc1ccc(F)c(C(=O)c2c[nH]c3ncc(-c4ccccc4)cc23)c1F [Compound P-0857]
not listed: Fak | Jnk1 | Flt1 | Ret | Jnk3
≤ 10 µM: all other assays above

CCCS(=O)(=O)Nc1ccc(F)c(Cc2c[nH]c3ncc(-c4ccccc4)cc23)c1F [Compound P-0911, Propane-1-sulfonic acid [2,4-difluoro-3-(5-phenyl-1H-pyrrolo[2,3-b]pyridin-3-ylmethyl)-phenyl]-amide]
not listed: Src | Jnk1 | Flt1 | Ret | Jnk3
≤ 10 µM: all other assays above

O=C(Nc1ccc(F)c(Cc2c[nH]c3ncc(-c4cccnc4)cc23)c1F)OCc1ccccc1 [Compound P-0396, [2,4-Difluoro-3-(5-pyridin-3-yl-1H-pyrrolo[2,3-b]pyridin-3-ylmethyl)-phenyl]-carbamic acid benzyl ester]
not listed: Jnk1 | Flt1 | Jnk3
≤ 10 µM: all other assays above

CCCS(=O)(=O)Nc1ccc(F)c(Cc2c[nH]c3ncc(Nc4ccccc4)cc23)c1F [Compound P-0818, Propane-1-sulfonic acid [2,4-difluoro-3-(5-phenylamino-1H-pyrrolo[2,3-b]pyridin-3-ylmethyl)-phenyl]-amide]
not listed: Jnk1 | Flt1 | Ret | Jnk3
≤ 10 µM: all other assays above

Nc1cccc(-c2cnc3[nH]cc(Cc4ccccc4F)c3c2)c1 [Compound P-1349]
not listed: Fms | c-Raf-1 | Flt1 | Ret
≤ 10 µM: all other assays above

CCCS(=O)(=O)Nc1ccc(F)c(Cc2c[nH]c3ncc(Br)cc23)c1F [Compound P-0910, Propane-1-sulfonic acid [3-(5-bromo-1H-pyrrolo[2,3-b]pyridin-3-ylmethyl)-2,4-difluoro-phenyl]-amide]
not listed: Fms | Jnk1 | Flt1 | Ret | Jnk3
≤ 10 µM: all other assays above

CCCC(=O)Nc1ccc(F)c(C(=O)c2c[nH]c3ncc(OC)cc23)c1F [Compound P-1370]
≤ 10 µM: Fms | Flt1 | Jnk1 | B-Raf V600E | Kit | Pyk2

CN(C)S(=O)(=O)Nc1ccc(F)c(C(=O)c2c[nH]c3ncc(Br)cc23)c1F [Compound P-0898, Dimethylamine-1-sulfonic acid [3-(5-bromo-1H-pyrrolo[2,3-b]pyridine-3-carbonyl)-2,4-difluoro-phenyl]-amide]
not listed: Fak | Jnk1 | Flt1 | Ret | Jnk3
≤ 10 µM: all other assays above

CN(C)S(=O)(=O)Nc1ccc(F)c(C(=O)c2c[nH]c3ncc(-c4cccnc4)cc23)c1F [Compound P-0837, Dimethylamine-1-sulfonic acid [3-(5-pyridin-3-yl-1H-pyrrolo[2,3-b]pyridine-3-carbonyl)-2,4-difluoro-phenyl]-amide]
not listed: Jnk1 | Flt1 | Ret | Jnk3
≤ 10 µM: all other assays above
